Reference: patent publication US20200246465A1, “USE OF TRYPTOPHAN DERIVATIVES FOR PROTEIN FORMULATIONS” (Genentech, Inc., priority 2015, published 2020)
Values joined by “and” are separate entries in the source; they are usually repeats but may differ in a detail not shown here. Equal entries are not always repeated.

Key:
Assay type in all cases: physicochemical
[1] = Thermal stress of NAT in formulation buffer, RP-HPLC at 240 nm; details: elevated temperature (40° C., 5 months), His buffer, 1.0 mM NAT
Experimental: Histidine and non-histidine buffers containing 1.0 mM NAT were aliquoted into sterile glass vials (5 ml/vial, 6 vials per buffer). Vials were stored in a dark box at the indicated temperatures during the stress and transferred to −70° C. for storage until analysis (timepoints taken monthly for five months). Initial time points for samples of each buffer solution were transferred immediately to −70° C. Prior to analysis, the samples were thawed and diluted with Milli-Q H2O to a final NAT concentration of 0.2 mM.
NAT and NAT degradants were separated on an Agilent 1200 series HPLC or Waters H Class UPLC using an Agilent ZORBAX SB-C18 3.5 μm, 4.6×75 mm reverse phase column. Column temperature was held at 30±0.8° C. by a thermostat controller. The gradients used for HPLC and UPLC are listed in Tables 5 and 6, respectively (note: the shorter gradient on the UPLC was designed to accommodate earlier retention times and the column re-equilibration period was elongated due to the larger range of system pressure at a flow rate of 1.0 ml/min). NAT degradation products were detected at 240 nm. The standard bandwidth setting (8 nm for Agilent 1200 HPLC, 4.8 nm for Waters H-Class) was used for analysis on each instrument. The autosampler was maintained at 5±3° C. […]
Total NAT degradation for each sample was calculated by comparing NAT peak area to the control sample for each stress model (Table 7). […]

[2] = Real time stability of NAT in drug product formulations
Experimental: NAT and NAT degradants were separated on an Agilent 1200 series HPLC or Waters H Class UPLC using an Agilent ZORBAX SB-C18 3.5 μm, 4.6×75 mm reverse phase column. Column temperature was held at 30±0.8° C. by a thermostat controller. The gradients used for HPLC and UPLC are listed in Tables 5 and 6, respectively (note: the shorter gradient on the UPLC was designed to accommodate earlier retention times and the column re-equilibration period was elongated due to the larger range of system pressure at a flow rate of 1.0 ml/min). NAT degradation products were detected at 240 nm. The standard bandwidth setting (8 nm for Agilent 1200 HPLC, 4.8 nm for Waters H-Class) was used for analysis on each instrument. The autosampler was maintained at 5±3° C. 10 nmol of NAT and/or NAT degradants (50 μl for most samples) was injected on to the column for analysis. The chromatograms were processed using Dionex Chromeleon software. Protein-containing samples were diluted in guanidine and the proteins removed via ultra-filtration (Amicon spin filters with a 30 kDa molecular weight cut-off). […] Using the final sample preparation conditions, recovery of NAT was 94-99% for three tested antibody/antibody derivatives and recovery of NAT degradants was 98-100% (data not shown). With this model experience in hand, the amount of NAT oxidation expected to occur in the manufacturing and storage of mAbs was explored next. FIG. 12 illustrates the comparison of the AAPH model stress system with an antibody at 150 mg/ml (1.0 mM) co-formulated with NAT, Met, and other excipients typical of mAb formulations. Results are shown for the initial time point, at −20° C. and 5° C. for six months (representative of typical storage conditions), and 25° C. for 6 months (representative of accelerated stability conditions). Oxidation levels were negligible directly after manufacturing and under the typical storage conditions tested.

[3] = AAPH oxidation stress of NAT in formulation buffer, RP-HPLC at 240 nm; details: for % NAT degradation ± 1SD: AAPH stress (1.0 mM AAPH, 40° C. 16 hours)
Experimental: AAPH (Calbio Chem, 99.8%) was used to model oxidative degradation by alkyl peroxides. Histidine and non-histidine buffers at pH 5.5 containing 0.3 mM NAT ±5 mM L-Met pH 5.5 were treated with an aqueous AAPH solution to a final concentration of 1.0 mM AAPH. An equivalent volume of Milli-Q H2O was added to control samples. Samples were incubated at 40° C. for 16 hours. Oxidation was quenched by the addition of L-Met to a final concentration of 20 mM. After the addition of the quenching solution, the final NAT concentration was 0.2 mM. NAT and NAT degradants were separated on an Agilent 1200 series HPLC or Waters H Class UPLC using an Agilent ZORBAX SB-C18 3.5 μm, 4.6×75 mm reverse phase column. Column temperature was held at 30±0.8° C. by a thermostat controller. The gradients used for HPLC and UPLC are listed in Tables 5 and 6, respectively (note: the shorter gradient on the UPLC was designed to accommodate earlier retention times and the column re-equilibration period was elongated due to the larger range of system pressure at a flow rate of 1.0 ml/min). NAT degradation products were detected at 240 nm. The standard bandwidth setting (8 nm for Agilent 1200 HPLC, 4.8 nm for Waters H-Class) was used for analysis on each instrument. The autosampler was maintained at 5±3° C. 10 nmol of NAT and/or NAT degradants (50 μl for most samples) was injected on to the column for analysis. The chromatograms were processed using Dionex Chromeleon software. Protein-containing samples were diluted in guanidine and the proteins removed via ultra-filtration (Amicon spin filters with a 30 kDa molecular weight cut-off). […] Using the final sample preparation conditions, recovery of NAT was 94-99% for three tested antibody/antibody derivatives and recovery of NAT degradants was 98-100% (data not shown). […] Total NAT degradation for each sample was calculated by comparing NAT peak area to the control sample for each stress model (Table 7). NAT degradation ranged from 3% (thermal stress, non-His buffer) to 83% (ICH light stress, His buffer). The impact of low concentrations of protein on AAPH-induced NAT degradation was also analyzed. Two antibodies (protein1 and protein2) were diluted to 1.0 mg/ml in buffer and formulated with 0.3 mM NAT (˜45:1 mol NAT:mol protein). Upon AAPH stress, the level of NAT degradation was largely consistent between protein-containing and protein-free solutions (˜40% loss in NAT peak area), as was the distribution of oxidant species (FIG. 11).

For CC(=O)N[C@@H](Cc1c[nH]c2ccccc12)C(=O)O [NAT, N-acetyl-tryptophan], the “% NAT degradation ± 1SD” value [1] was 11.1 (n = 1) %, the “loss of NAT” value ([2]; 3 months at 25° C., corresponding vehicle (formulation without protein)) was 1% and the NAT loss ([2]; 3 months at 25° C., protein containing sample (antibody 150 mg/ml, NAT, Met, excipients)) was 7.5%. For the same compound, the NAT oxidation levels ([2]; directly after manufacturing and at −20° C. and 5° C. for six months, antibody 150 mg/ml co-formulated with NAT, Met) was “negligible”, the “total NAT loss” value ([2]; six months at 25° C., antibody at 150 mg/ml (1.0 mM) co-formulated with NAT, Met and other excipients) was 16.8% and the NAT degradation ([2]; vehicle (formulation without protein) at higher temperatures) was “minimal NAT degradation”. For the same compound, the “improvement to NAT stability by 5 mM Met (total NAT loss)” value ([3]; AAPH model, depending on buffer) was 4-8%, the “% NAT degradation ± 1SD” value ([3]; His + 5 mM Met buffer, 0.3 mM NAT) was 34.7 ± 0.1 (n = 3) % and the “% NAT degradation ± 1SD” value ([3]; His buffer pH 5.5, 0.3 mM NAT) was 39.8 ± 0.2 (n = 3) %. For the same compound, the “% NAT degradation ± 1SD” value ([3]; Non-His + 5 mM Met buffer, 0.3 mM NAT) was 32.9 ± 0.5 (n = 3) %, the “% NAT degradation ± 1SD” value ([3]; Non-His buffer pH 5.5, 0.3 mM NAT) was 41.1 ± 0.7 (n = 3) % and the “NAT degradation (loss)” value ([3]; AAPH stress, under all tested conditions) was 30-40% and 33-41%. The “loss in NAT peak area” value ([3]; AAPH stress, 0.3 mM NAT in histidine-based buffer, protein-free or with 1.0 mg/ml protein1 or protein2) was ~40%.
